Test results published in US7015241B2, “Appetite-stimulating agents and remedies for anorexia” (Eisai Co., Ltd., priority 2001, dated 2006).

Experiments:
BDF1 mice = experiment: Appetite-stimulating and body weight-increasing effects, intraperitoneal administration once a day for 15 days; type: in vivo, mouse; conditions: BDF1 mice (7 weeks old, female), i.p. once a day for 15 days, vs control group; for body weight: FIG. 1; for food intake: FIG. 2
Method: (§1) A subjective compound was suspended in saline containing 3.5% dimethylsulfoxide and 6.5% Tween 80, and intraperitoneally administered to BDF1 mice (7 weeks old, female) in a given amount once a day for 15 days (day 0 to day 14). To mice of a control group, saline containing 3.5% dimethylsulfoxide and 6.5% Tween 80 was intraperitoneally administered. Administration was conducted at 1 p.m. every day, and the body weight (day 0 to day 15) and the food intake since the preceding day (day 1 to day 15) were weighed immediately before the administration. The experiments were conducted using 5 mice per group for each of the drug-administered group and the control group. The numbers of the compound examples are the same as in the list described above (hereinafter, the same applies).

mice = experiment: Toxicity observation on successive administration to mice for 15 days; type: in vivo; conditions: 100 mg/kg and 200 mg/kg successively for 15 days
Method: as §1
Thus, it is considered that the compound represented by the general formula (I) has low toxicity.

Interleukin-1-beta = experiment: Gene expression analysis of white adipose tissues by GeneChip (Affymetrix) Murine Genome U74A; type: in vivo, mouse; conditions: day 15, 200 mg/kg i.p. once a day for 15 days, BDF1 mice, Accession M15131
Method: (§2) The compound of the Compound 17 was suspended in saline containing 3.5% dimethylsulfoxide and 6.5% Tween 80, and intraperitoneally administered to BDF1 mice (7 weeks old, female) in an amount of 200 mg/kg once a day for 15 days (day 0 to day 14). To mice of a control group, saline containing 3.5% dimethylsulfoxide and 6.5% Tween 80 was intraperitoneally administered. The experiments were conducted using 5 mice per group for each of the drug-administered group and the control group. On day 15, white adipose tissues were collected from the mice of the drug-administered group and the control group, and were examined for expression levels of mRNA using GeneChip (Affymetrix) Murine Genome U74A. The experimental operation was conducted in accordance with GeneChip Expression Analysis Technical Manual, and the quantitative analysis was conducted using GeneChip Software.

Interleukin-6 = experiment: as above; type: in vivo, mouse; conditions: day 15, 200 mg/kg i.p. once a day for 15 days, BDF1 mice, Accession X54542
Method: as §2

[1] = tested on: griPGHS (Glucocorticoid-regulated inflammatory prostaglandin G/H synthase); experiment: as above; type: in vivo, mouse; conditions: day 15, 200 mg/kg i.p. once a day for 15 days, BDF1 mice, Accession M88242
Method: as §2

Structure (SMILES)	body weight (BDF1 mice)	food intake (BDF1 mice)	body weight increase (mice)	condition of the mice (mice)	toxicity (mice)	Expression level ratio (drug-administered group/control group), Interleukin-1-beta mRNA (Interleukin-1-beta) [%]	Expression level ratio (drug-administered group/control group), Interleukin-6 mRNA (Interleukin-6) [%]	Expression level ratio (drug-administered group/control group), griPGHS mRNA [1] [%]
N#Cc1ccc(S(=O)(=O)Nc2cccc3c(Cl)c[nH]c23)cc1 [Compound 10, N-(3-Chloro-1H-indol-7-yl)-4-cyanobenzenesulfonamide]	increased	increased	body weight increase depending on dose	quite normal condition	no observation indicating toxicity	–	–	–
N#Cc1c[nH]c2c(NS(=O)(=O)c3cccc(Cl)c3)cccc12 [Compound 17, 3-Chloro-N-(3-cyano-1H-indol-7-yl)benzenesulfonamide]	increased	increased	body weight increase depending on dose	quite normal condition	no observation indicating toxicity	22	24	26
N#Cc1cccc(S(=O)(=O)Nc2cccc3c(C#N)c[nH]c23)c1 [Compound 51, 3-Cyano-N-(3-cyano-1H-indol-7-yl)benzenesulfonamide]	increased	increased	body weight increase depending on dose	quite normal condition	no observation indicating toxicity	–	–	–
Cc1ccc(NS(=O)(=O)c2cccc(C#N)c2)c2[nH]cc(C#N)c12 [Compound 94, 3-Cyano-N-(3-cyano-4-methyl-1H-indol-7-yl)-benzenesulfonamide]	increased	increased	body weight increase depending on dose	quite normal condition	no observation indicating toxicity	–	–	–
